Assay results as given in patent publication US20250176599A1, “FLAVOR COMPOSITION AND FOOD AND BEVERAGE” (TAKASAGO INTERNATIONAL CORPORATION, priority 2021, published 2025).

Columns and labels:
[1] = Sensory evaluation of aqueous solution VI containing 1,5-octadien-3-ol 10 ppb: off-flavor intensity and masking component intensity
Summary of the method: (§1)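 Nootkatone added to degradation-component solutions in ion-exchanged water and scored by eight experienced panelists. Off-flavor rated 0–4 relative to unmasked solution (4) and plain water (0). Masking-component intensity rated on an absolute 0–4 scale.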

[2] = Sensory evaluation of aqueous solution I containing (E)-2-nonenal 1 ppb: off-flavor intensity and masking component intensity
Summary of the method: as §1

[3] = Sensory evaluation of aqueous solution III containing 1-octen-3-one 1 ppb: off-flavor intensity and masking component intensity
Summary of the method: as §1

[4] = Sensory evaluation of aqueous solution II containing (E)-2-octenal 10 ppb: off-flavor intensity and masking component intensity
Summary of the method: as §1

[5] = Sensory evaluation of aqueous solution V containing 1-octen-3-ol 10 ppb: off-flavor intensity and masking component intensity
Summary of the method: as §1

[6] = Overall conclusion of the sensory evaluation across aqueous solutions I to VI
Summary of the method: as §1

[7] = Sensory evaluation of aqueous solution IV containing 1,5-octadien-3-one 100 ppt: off-flavor intensity and masking component intensity
Summary of the method: as §1

[8] = aqueous solution VI, 1 ppb added, average panel score
[9] = aqueous solution VI, 1 ppm added, average panel score
[10] = aqueous solution VI, 5 ppm added, average panel score
[11] = aqueous solution VI, 10 ppb added, average panel score
[12] = aqueous solution VI, 10 ppm added, average panel score
[13] = aqueous solution VI, 10 ppt added, average panel score
[14] = aqueous solution VI, 100 ppb added, average panel score
[15] = aqueous solution VI, 100 ppt added, average panel score
[16] = 1 ppb added, average panel score
[17] = 1 ppm added, average panel score
[18] = 5 ppm added, average panel score
[19] = 10 ppb added, average panel score
[20] = 10 ppm added, average panel score
[21] = 10 ppt added, average panel score
[22] = 100 ppb added, average panel score
[23] = 100 ppt added, average panel score
[24] = aqueous solution IV, 1 ppb added, average panel score
[25] = aqueous solution IV, 1 ppm added, average panel score
[26] = aqueous solution IV, 5 ppm added, average panel score
[27] = aqueous solution IV, 10 ppb added, average panel score
[28] = aqueous solution IV, 10 ppm added, average panel score
[29] = aqueous solution IV, 10 ppt added, average panel score
[30] = aqueous solution IV, 100 ppb added, average panel score
[31] = aqueous solution IV, 100 ppt added, average panel score

C=CC(C)(O)CCC=C(C)CCC=C(C)C (stereo not shown) [nerolidol]
Masking Component Intensity [1, 8]: 0.3 | Off-Flavor Intensity [1, 8]: 3.1 | Masking Component Intensity [1, 9]: 2.5 | Off-Flavor Intensity [1, 9]: 1.8 | Masking Component Intensity [1, 10]: 3.5 | Off-Flavor Intensity [1, 10]: 1.1 | Masking Component Intensity [1, 11]: 0.8 | Off-Flavor Intensity [1, 11]: 2.4 | Masking Component Intensity [1, 12]: 3.9 | Off-Flavor Intensity [1, 12]: 0.8 | Masking Component Intensity [1, 13]: 0.0 | Off-Flavor Intensity [1, 13]: 3.5 | Masking Component Intensity [1, 14]: 1.3 | Off-Flavor Intensity [1, 14]: 2.1 | Masking Component Intensity [1, 15]: 0.1 | Off-Flavor Intensity [1, 15]: 3.3 | Masking Component Intensity [2, 16]: 0.4 | Off-Flavor Intensity [2, 16]: 2.8 | Masking Component Intensity [2, 17]: 2.0 | Off-Flavor Intensity [2, 17]: 1.6 | Masking Component Intensity [2, 18]: 2.9 | Off-Flavor Intensity [2, 18]: 1.0 | Masking Component Intensity [2, 19]: 0.6 | Off-Flavor Intensity [2, 19]: 2.4 | Masking Component Intensity [2, 20]: 3.8 | Off-Flavor Intensity [2, 20]: 0.8 | Masking Component Intensity [2, 21]: 0.1 | Off-Flavor Intensity [2, 21]: 3.6 | Masking Component Intensity [2, 22]: 1.1 | Off-Flavor Intensity [2, 22]: 2.0 | Masking Component Intensity [2, 23]: 0.3 | Off-Flavor Intensity [2, 23]: 3.3 | Masking Component Intensity [3, 16]: 0.4 | Off-Flavor Intensity [3, 16]: 3.0 | Masking Component Intensity [3, 17]: 2.1 | Off-Flavor Intensity [3, 17]: 1.5 | Masking Component Intensity [3, 18]: 3.4 | Off-Flavor Intensity [3, 18]: 0.9 | Masking Component Intensity [3, 19]: 0.8 | Off-Flavor Intensity [3, 19]: 2.5 | Masking Component Intensity [3, 20]: 3.6 | Off-Flavor Intensity [3, 20]: 0.4 | Masking Component Intensity [3, 21]: 0.1 | Off-Flavor Intensity [3, 21]: 3.6 | Masking Component Intensity [3, 22]: 1.5 | Off-Flavor Intensity [3, 22]: 2.0 | Masking Component Intensity [3, 23]: 0.3 | Off-Flavor Intensity [3, 23]: 3.4 | Masking Component Intensity [4, 16]: 0.4 | Off-Flavor Intensity [4, 16]: 2.6 | Masking Component Intensity [4, 17]: 2.4 | Off-Flavor Intensity [4, 17]: 1.5 | Masking Component Intensity [4, 18]: 3.4 | Off-Flavor Intensity [4, 18]: 0.8 | Masking Component Intensity [4, 19]: 0.8 | Off-Flavor Intensity [4, 19]: 2.3 | Masking Component Intensity [4, 20]: 3.8 | Off-Flavor Intensity [4, 20]: 0.5 | Masking Component Intensity [4, 21]: 0.0 | Off-Flavor Intensity [4, 21]: 3.4 | Masking Component Intensity [4, 22]: 1.5 | Off-Flavor Intensity [4, 22]: 1.9 | Masking Component Intensity [4, 23]: 0.1 | Off-Flavor Intensity [4, 23]: 3.0 | Masking Component Intensity [5, 16]: 0.6 | Off-Flavor Intensity [5, 16]: 2.6 | Masking Component Intensity [5, 17]: 2.6 | Off-Flavor Intensity [5, 17]: 1.6 | Masking Component Intensity [5, 18]: 3.5 | Off-Flavor Intensity [5, 18]: 1.0 | Masking Component Intensity [5, 19]: 0.9 | Off-Flavor Intensity [5, 19]: 2.5 | Masking Component Intensity [5, 20]: 3.9 | Off-Flavor Intensity [5, 20]: 0.6 | Masking Component Intensity [5, 21]: 0.1 | Off-Flavor Intensity [5, 21]: 3.6 | Masking Component Intensity [5, 22]: 1.4 | Off-Flavor Intensity [5, 22]: 2.1 | Masking Component Intensity [5, 23]: 0.3 | Off-Flavor Intensity [5, 23]: 3.1 | concentration that masks the off-flavor and does not affect the flavor of the food and/or beverage itself, lower limit [6]: ≥ 100 ppt | concentration that masks the off-flavor and does not affect the flavor of the food and/or beverage itself, upper limit [6]: ≤ 5 ppm | Masking Component Intensity [7, 24]: 0.4 | Off-Flavor Intensity [7, 24]: 3.1 | Masking Component Intensity [7, 25]: 2.0 | Off-Flavor Intensity [7, 25]: 2.3 | Masking Component Intensity [7, 26]: 3.0 | Off-Flavor Intensity [7, 26]: 1.9 | Masking Component Intensity [7, 27]: 0.6 | Off-Flavor Intensity [7, 27]: 3.0 | Masking Component Intensity [7, 28]: 3.6 | Off-Flavor Intensity [7, 28]: 1.4 | Masking Component Intensity [7, 29]: 0.1 | Off-Flavor Intensity [7, 29]: 3.6 | Masking Component Intensity [7, 30]: 1.3 | Off-Flavor Intensity [7, 30]: 2.6 | Masking Component Intensity [7, 31]: 0.1 | Off-Flavor Intensity [7, 31]: 3.4

CC(=O)/C=C/C1C(C)=CCCC1(C)C (stereo not drawn) [α-Ionone, α-ionone]
Off-Flavor Intensity ([1]; 0.1 ppt added, aqueous solution VI, 1,5-octadien-3-ol 10 ppb, average score 0-4): 3.1 points | Off-Flavor Intensity ([1]; 1 ppb added, aqueous solution VI, 1,5-octadien-3-ol 10 ppb, average score 0-4): 1.8 points | Off-Flavor Intensity ([1]; 1 ppm added, aqueous solution VI, 1,5-octadien-3-ol 10 ppb, average score 0-4): 0.1 points | Off-Flavor Intensity ([1]; 1 ppt added, aqueous solution VI, 1,5-octadien-3-ol 10 ppb, average score 0-4): 2.9 points | Off-Flavor Intensity ([1]; 10 ppb added, aqueous solution VI, 1,5-octadien-3-ol 10 ppb, average score 0-4): 1.5 points | Off-Flavor Intensity ([1]; 10 ppm added, aqueous solution VI, 1,5-octadien-3-ol 10 ppb, average score 0-4): 0.0 points | Off-Flavor Intensity ([1]; 10 ppt added, aqueous solution VI, 1,5-octadien-3-ol 10 ppb, average score 0-4): 2.5 points | Off-Flavor Intensity ([1]; 100 ppb added, aqueous solution VI, 1,5-octadien-3-ol 10 ppb, average score 0-4): 0.8 points | Off-Flavor Intensity ([1]; 100 ppt added, aqueous solution VI, 1,5-octadien-3-ol 10 ppb, average score 0-4): 2.0 points | Off-Flavor Intensity ([2]; 0.1 ppt added, (E)-2-nonenal 1 ppb, average score 0-4): 3.9 points | Off-Flavor Intensity ([2]; 1 ppb added, (E)-2-nonenal 1 ppb, average score 0-4): 2.3 points | Off-Flavor Intensity ([2]; 1 ppm added, (E)-2-nonenal 1 ppb, average score 0-4): 0.6 points | Off-Flavor Intensity ([2]; 1 ppt added, (E)-2-nonenal 1 ppb, average score 0-4): 3.6 points | Off-Flavor Intensity ([2]; 10 ppb added, (E)-2-nonenal 1 ppb, average score 0-4): 1.8 points | Off-Flavor Intensity ([2]; 10 ppm added, (E)-2-nonenal 1 ppb, average score 0-4): 0.3 points | Off-Flavor Intensity ([2]; 10 ppt added, (E)-2-nonenal 1 ppb, average score 0-4): 3.1 points | Off-Flavor Intensity ([2]; 100 ppb added, (E)-2-nonenal 1 ppb, average score 0-4): 1.3 points | Off-Flavor Intensity ([2]; 100 ppt added, (E)-2-nonenal 1 ppb, average score 0-4): 2.6 points | Off-Flavor Intensity ([3]; 0.1 ppt added, 1-octen-3-one 1 ppb, average score 0-4): 3.6 points | Off-Flavor Intensity ([3]; 1 ppb added, 1-octen-3-one 1 ppb, average score 0-4): 2.4 points | Off-Flavor Intensity ([3]; 1 ppm added, 1-octen-3-one 1 ppb, average score 0-4): 0.8 points | Off-Flavor Intensity ([3]; 1 ppt added, 1-octen-3-one 1 ppb, average score 0-4): 3.4 points | Off-Flavor Intensity ([3]; 10 ppb added, 1-octen-3-one 1 ppb, average score 0-4): 1.9 points | Off-Flavor Intensity ([3]; 10 ppm added, 1-octen-3-one 1 ppb, average score 0-4): 0.1 points | Off-Flavor Intensity ([3]; 10 ppt added, 1-octen-3-one 1 ppb, average score 0-4): 3.0 points | Off-Flavor Intensity ([3]; 100 ppb added, 1-octen-3-one 1 ppb, average score 0-4): 1.6 points | Off-Flavor Intensity ([3]; 100 ppt added, 1-octen-3-one 1 ppb, average score 0-4): 2.8 points | Off-Flavor Intensity ([4]; 0.1 ppt added, (E)-2-octenal 10 ppb, average score 0-4): 3.1 points | Off-Flavor Intensity ([4]; 1 ppb added, (E)-2-octenal 10 ppb, average score 0-4): 1.9 points | Off-Flavor Intensity ([4]; 1 ppm added, (E)-2-octenal 10 ppb, average score 0-4): 0.1 points | Off-Flavor Intensity ([4]; 1 ppt added, (E)-2-octenal 10 ppb, average score 0-4): 2.9 points | Off-Flavor Intensity ([4]; 10 ppb added, (E)-2-octenal 10 ppb, average score 0-4): 1.5 points | Off-Flavor Intensity ([4]; 10 ppm added, (E)-2-octenal 10 ppb, average score 0-4): 0.0 points | Off-Flavor Intensity ([4]; 10 ppt added, (E)-2-octenal 10 ppb, average score 0-4): 2.5 points | Off-Flavor Intensity ([4]; 100 ppb added, (E)-2-octenal 10 ppb, average score 0-4): 0.8 points | Off-Flavor Intensity ([4]; 100 ppt added, (E)-2-octenal 10 ppb, average score 0-4): 2.4 points | Off-Flavor Intensity ([5]; 0.1 ppt added, 1-octen-3-ol 10 ppb, average score 0-4): 3.1 points | Off-Flavor Intensity ([5]; 1 ppb added, 1-octen-3-ol 10 ppb, average score 0-4): 1.9 points | Off-Flavor Intensity ([5]; 1 ppm added, 1-octen-3-ol 10 ppb, average score 0-4): 0.5 points | Off-Flavor Intensity ([5]; 1 ppt added, 1-octen-3-ol 10 ppb, average score 0-4): 3.0 points | Off-Flavor Intensity ([5]; 10 ppb added, 1-octen-3-ol 10 ppb, average score 0-4): 1.5 points | Off-Flavor Intensity ([5]; 10 ppm added, 1-octen-3-ol 10 ppb, average score 0-4): 0.0 points | Off-Flavor Intensity ([5]; 10 ppt added, 1-octen-3-ol 10 ppb, average score 0-4): 2.5 points | Off-Flavor Intensity ([5]; 100 ppb added, 1-octen-3-ol 10 ppb, average score 0-4): 1.0 points | Off-Flavor Intensity ([5]; 100 ppt added, 1-octen-3-ol 10 ppb, average score 0-4): 2.3 points | concentration that masks the off-flavor and does not affect the flavor of the food and/or beverage itself, lower limit [6]: ≥ 1 ppt | concentration that masks the off-flavor and does not affect the flavor of the food and/or beverage itself, upper limit [6]: ≤ 100 ppb | Off-Flavor Intensity ([7]; 0.1 ppt added, aqueous solution IV, 1,5-octadien-3-one 100 ppt, average score 0-4): 3.5 points | Off-Flavor Intensity ([7]; 1 ppb added, aqueous solution IV, 1,5-octadien-3-one 100 ppt, average score 0-4): 2.4 points | Off-Flavor Intensity ([7]; 1 ppm added, aqueous solution IV, 1,5-octadien-3-one 100 ppt, average score 0-4): 1.0 points | Off-Flavor Intensity ([7]; 1 ppt added, aqueous solution IV, 1,5-octadien-3-one 100 ppt, average score 0-4): 3.4 points | Off-Flavor Intensity ([7]; 10 ppb added, aqueous solution IV, 1,5-octadien-3-one 100 ppt, average score 0-4): 2.1 points | Off-Flavor Intensity ([7]; 10 ppm added, aqueous solution IV, 1,5-octadien-3-one 100 ppt, average score 0-4): 0.1 points | Off-Flavor Intensity ([7]; 10 ppt added, aqueous solution IV, 1,5-octadien-3-one 100 ppt, average score 0-4): 3.1 points | Off-Flavor Intensity ([7]; 100 ppb added, aqueous solution IV, 1,5-octadien-3-one 100 ppt, average score 0-4): 1.6 points | Off-Flavor Intensity ([7]; 100 ppt added, aqueous solution IV, 1,5-octadien-3-one 100 ppt, average score 0-4): 2.9 points
